Molecular target: T1, delta-5-desaturase (Rattus norvegicus, UniProt Q920R3)
T1 construct: the microsomal fraction of a rat river (10 μl), which had been diluted to 3 mg/ml; from tissue; host or cells: rat liver microsomal fraction
Test: Inhibitory activity on delta-5-desaturase (rat liver microsomal fraction, 14C-eicosatrienoic acid, TLC)
Format: biochemical
Conditions: test compound at 10 μM, room temperature, 120 minutes
Method: An inhibitory activity of a test compound on delta-5-desaturase was measured according to the method described herein below. To a DMSO solution of the test compound which had been previously prepared, secondary dilution was carried out by using a buffer (300 mM NaH2PO4 [pH 7.4], 450 mM KCl, 30 mM NaF, 9 mM MgCl2, 4.5 mM glutathione [reduced form], 0.3% BSA [fatty acid free, SIGMA]). This diluent compound (10 μl) was added in a 96-well deep well block made of polypropylene, and then the microsomal fraction of a rat river (10 μl), which had been diluted to 3 mg/ml by using a microsome buffer (10 mM Tris-HCl [pH 7.4], 1 mM EDTA, and 250 mM sucrose), was added thereto. The enzyme reaction was initiated by adding 10 μl of 9 mM NADH, 9 mM ATP, 0.9 mM CoA and 10 μCi/ml (8E,11E,14E)-(1-^14C)eicosa-8,11,14-trienoic acid (PerkinElmer Inc.). The enzyme reaction was carried out at room temperature for 120 minutes, and then terminated by addition of 2.5 M NaOH (10 μl). Upon the completion of the reaction, the plate was covered with plate seal and incubated overnight in a dry heater of which temperature was set at 55° C. for saponification. Based on Bligh & Dyer method which had been described in a known document, Canadian Journal of Biochemistry and Physiology (Can. J. Biochem. Physiol.), Vol. 37, page 911, 1959), the solvent extraction of fatty acid was carried out by adding 200 μl of formic acid:methanol:chloroform (1:6:3), keeping the mixture as a single layer for a while, stirring the mixture to a sufficient level, and adding 120 μl of pure water to separate the mixture into two layers. 10 μl of the bottom chloroform layer was spotted on a reverse phase TLC plate (RP-18, 1154230001, Merck Japan, Ltd.) and then developed with acetonitrile:pure water:acetic acid (95:4.5:0.5). The TLC plate obtained after drying was transferred to an Imaging Plate (Fuji Photo Film Co., Ltd.) for more than 5 hours. Detection was carried out by using BAS-5000 (Fuji Photo Film Co., Ltd.). Numerization of thus-obtained image was carried out by using Multi Gauge Ver 2.3 (Fuji Photo Film Co., Ltd.) and an inhibitory ratio (%) of the test compound at 10 μM on delta-5-desaturase was obtained.

T1 sequence (Q920R3 whole entry): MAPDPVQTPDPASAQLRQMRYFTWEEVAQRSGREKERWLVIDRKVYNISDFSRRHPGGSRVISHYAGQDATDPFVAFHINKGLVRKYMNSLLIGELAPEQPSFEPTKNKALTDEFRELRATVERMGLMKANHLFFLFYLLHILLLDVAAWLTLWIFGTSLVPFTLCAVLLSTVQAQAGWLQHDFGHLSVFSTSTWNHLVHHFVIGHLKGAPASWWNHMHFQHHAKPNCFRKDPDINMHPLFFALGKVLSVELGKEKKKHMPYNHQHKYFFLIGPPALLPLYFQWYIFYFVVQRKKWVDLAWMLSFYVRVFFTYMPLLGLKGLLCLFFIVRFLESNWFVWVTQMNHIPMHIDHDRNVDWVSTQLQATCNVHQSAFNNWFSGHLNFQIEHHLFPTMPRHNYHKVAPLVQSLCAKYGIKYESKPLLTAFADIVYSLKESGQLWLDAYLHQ

Row | Compound | inhibition at 10 µM [%]
1 | O=c1c2[nH]ccc2nc(SCC(F)(F)F)n1-c1ccc(OCC(F)(F)F)cc1 [Example 103, 3-[4-(2,2,2-Trifluoroethoxy)phenyl]-2-[(2,2,2-trifluoroethyl)sulfanyl]-3,5-dihydro-4H-pyrrolo[3,2-d]pyrimidin-4-one] | 100
2 | O=c1c2[nH]ccc2nc(SCCCS(=O)(=O)N2CCOCC2)n1-c1ccc(OCC(F)(F)F)cc1 [Example 106, 2-{[3-(Morpholin-4-ylsulfonyl)propyl]sulfanyl}-3-[4-(2,2,2-trifluoroethoxy)phenyl]-3,5-dihydro-4H-pyrrolo[3,2-d]pyrimidin-4-one] | 102
3 | O=c1c2[nH]ccc2nc(SCCCS(=O)(=O)NCC(F)(F)F)n1-c1ccc(OCC(F)(F)F)cc1 [Example 107, 3-({4-Oxo-3-[4-(2,2,2-trifluoroethoxy)phenyl]-4,5-dihydro-3H-pyrrolo[3,2-d]pyrimidin-2-yl}sulfanyl)-N-(2,2,2-trifluoroethyl)propane-1-sulfonamide] | 100
4 | O=c1c2[nH]ccc2nc(SCCCS(=O)(=O)NC2CC2)n1-c1ccc(OCC(F)(F)F)cc1 [Example 108, N-cyclopropyl-3-({4-oxo-3-[4-(2,2,2-trifluoroethoxy)phenyl]-4,5-dihydro-3H-pyrrolo[3,2-d]pyrimidin-2-yl}sulfanyl)propane-1-sulfonamide] | 101
5 | O=C(CCCSc1nc2cc[nH]c2c(=O)n1-c1ccc(OCC(F)(F)F)cc1)N1CCOCC1 [Example 109, 2-[(4-Morpholin-4-yl-4-oxobutyl)sulfanyl]-3-[4-(2,2,2-trifluoroethoxy)phenyl]-3,5-dihydro-4H-pyrrolo[3,2-d]pyrimidin-4-one] | 101
6 | O=C(CCCSc1nc2cc[nH]c2c(=O)n1-c1ccc(OCC(F)(F)F)cc1)N1CCCC1 [Example 110, 2-[(4-Oxo-4-pyrrolidin-1-ylbutyl)sulfanyl]-3-[4-(2,2,2-trifluoroethoxy)phenyl]-3,5-dihydro-4H-pyrrolo[3,2-d]pyrimidin-4-one] | 102
7 | O=c1c2[nH]ccc2nc(SCCN2CCOCC2)n1-c1ccc(OCC(F)(F)F)cc1 [Example 111, 2-[(2-Morpholin-4-ylethyl)sulfanyl]-3-[4-(2,2,2-trifluoroethoxy)phenyl]-3,5-dihydro-4H-pyrrolo[3,2-d]pyrimidin-4-one] | 98
8 | O=c1c2[nH]ccc2nc(SCCCN2CCOCC2)n1-c1ccc(OCC(F)(F)F)cc1 [Example 112, 2-[(3-Morpholin-4-ylpropyl)sulfanyl]-3-[4-(2,2,2-trifluoroethoxy)phenyl]-3,5-dihydro-4H-pyrrolo[3,2-d]pyrimidin-4-one] | 102
9 | CC(C)CCOc1ccc(-n2c(SCCCC(=O)NCCC#N)nc3cc[nH]c3c2=O)cc1 [Example 113, N-(2-cyanoethyl)-4-({3-[4-(3-methylbutoxy)phenyl]-4-oxo-4,5-dihydro-3H-pyrrolo[3,2-d]pyrimidin-2-yl}sulfanyl)butanamide] | 102
10 | CC(C)(C)COc1ccc(-n2c(SCCCC(=O)NCCC#N)nc3cc[nH]c3c2=O)cc1 [Example 115, N-(2-cyanoethyl)-4-({3-[4-(2,2-dimethylpropoxy)phenyl]-4-oxo-4,5-dihydro-3H-pyrrolo[3,2-d]pyrimidin-2-yl}sulfanyl)butanamide] | 103
11 | CSc1nc2cc[nH]c2c(=O)n1-c1ccc(OCC(F)(F)F)cc1 [Example 121, 2-(Methylsulfanyl)-3-[4-(2,2,2-trifluoroethoxy)phenyl]-3,5-dihydro-4H-pyrrolo[3,2-d]pyrimidin-4-one] | 100
12 | O=c1c2[nH]ccc2nc(SC(F)F)n1-c1ccc(OCC(F)(F)F)cc1 [Example 129, 2-[(Difluoromethyl)sulfanyl]-3-[4-(2,2,2-trifluoroethoxy)phenyl]-3,5-dihydro-4H-pyrrolo[3,2-d]pyrimidin-4-one] | 101
13 | CC(C)OCC(O)CSc1nc2cc[nH]c2c(=O)n1-c1ccc(OCC(F)(F)F)cc1 (centres unmarked) [Example 130, 2-{[2-Hydroxy-3-(1-methylethoxy)propyl]sulfanyl}-3-[4-(2,2,2-trifluoroethoxy)phenyl]-3,5-dihydro-4H-pyrrolo[3,2-d]pyrimidin-4-one] | 100
14 | CC(C)(O)CCSc1nc2cc[nH]c2c(=O)n1-c1ccc(OCC(F)(F)F)cc1 [Example 131, 2-[(3-Hydroxy-3-methylbutyl)sulfanyl]-3-[4-(2,2,2-trifluoroethoxy)phenyl]-3,5-dihydro-4H-pyrrolo[3,2-d]pyrimidin-4-one] | 108
15 | CC1(O)CCN(C(=O)CCCSc2nc3cc[nH]c3c(=O)n2-c2ccc(OCC(F)(F)F)cc2)CC1 [Example 134, 2-{[4-(4-Hydroxy-4-methylpiperidin-1-yl)-4-oxobutyl]sulfanyl}-3-[4-(2,2,2-trifluoroethoxy)phenyl]-3,5-dihydro-4H-pyrrolo[3,2-d]pyrimidin-4-one] | 100

Now from value to compound:

Row | inhibition at 10 µM [%] | Compound
16 | 100 | CCSc1nc2cc[nH]c2c(=O)n1-c1ccc(OCC(F)(F)F)cc1 [Example 104, 2-(Ethylsulfanyl)-3-[4-(2,2,2-trifluoroethoxy)phenyl]-3,5-dihydro-4H-pyrrolo[3,2-d]pyrimidin-4-one]
17 | 100 | CCCSc1nc2cc[nH]c2c(=O)n1-c1ccc(OCC(F)(F)F)cc1 [Example 105, 2-(Propylsulfanyl)-3-[4-(2,2,2-trifluoroethoxy)phenyl]-3,5-dihydro-4H-pyrrolo[3,2-d]pyrimidin-4-one]
18 | 101 | O=c1c2[nH]ccc2nc(SCCCO)n1-c1ccc(OCC(F)(F)F)cc1 [Example 116, 2-[(3-Hydroxypropyl)sulfanyl]-3-[4-(2,2,2-trifluoroethoxy)phenyl]-3,5-dihydro-4H-pyrrolo[3,2-d]pyrimidin-4-one]
19 | 102 | O=c1c2[nH]ccc2nc(SCCCCO)n1-c1ccc(OCC(F)(F)F)cc1 [Example 119, 2-[(4-Hydroxybutyl)sulfanyl]-3-[4-(2,2,2-trifluoroethoxy)phenyl]-3,5-dihydro-4H-pyrrolo[3,2-d]pyrimidin-4-one]
20 | 101 | NS(=O)(=O)CCCSc1nc2cc[nH]c2c(=O)n1-c1ccc(OCC(F)(F)F)cc1 [Example 120, 3-({4-Oxo-3-[4-(2,2,2-trifluoroethoxy)phenyl]-4,5-dihydro-3h-pyrrolo[3,2-d]pyrimidin-2-yl}sulfanyl)propane-1-sulfonamide]
21 | 101 | CC(C)(O)CCCSc1nc2cc[nH]c2c(=O)n1-c1ccc(OCC(F)(F)F)cc1 [Example 123, 2-[(4-Hydroxy-4-methylpentyl)sulfanyl]-3-[4-(2,2,2-trifluoroethoxy)phenyl]-3,5-dihydro-4H-pyrrolo[3,2-d]pyrimidin-4-one]
22 | 102 | O=c1c2[nH]ccc2nc(SCCO)n1-c1ccc(OCC(F)(F)F)cc1 [Example 127, 2-[(2-Hydroxyethyl)sulfanyl]-3-[4-(2,2,2-trifluoroethoxy)phenyl]-3,5-dihydro-4H-pyrrolo[3,2-d]pyrimidin-4-one]
23 | 107 | COCCCSc1nc2cc[nH]c2c(=O)n1-c1ccc(OCC(F)(F)F)cc1 [Example 132, 2-[(3-Methoxypropyl)sulfanyl]-3-[4-(2,2,2-trifluoroethoxy)phenyl]-3,5-dihydro-4H-pyrrolo[3,2-d]pyrimidin-4-one]
